Measured values as given in patent publication US9695155B2, “Herbicidal substituted pyrimidinyloxy benzene compounds” (E. I. DU PONT DE NEMOURS AND COMPANY, priority 2013, dated 2017).

Assays:
[1] = tested on: field bindweed; assay: Test E preemergence; format: in vivo, Convolvulus arvensis; settings: for Field Bindweed plant response rating: scale 0 to 100 (0 no effect, 100 complete control)
How it was run: (§1)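 Response was scored visually on a 0-100 scale (100 = complete control) versus controls after 14 to 21 days in the greenhouse. Test chemicals, formulated with surfactant in a non-phytotoxic solvent mixture, had been applied preemergence to seeds in silt loam soil or postemergence to 1- to 4-leaf plants in potting medium.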

[2] = tested on: kochia; assay: Test A preemergence; format: in vivo, Kochia scoparia
How it was run: (§2)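 Visual injury scored 0–100 (100 = complete control) against untreated controls about 10 days after treatment in a greenhouse. Test chemicals, formulated with surfactant in non-phytotoxic solvent, were sprayed on soil preemergence or on 2-10 cm, one- to two-leaf plants postemergence.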

[3] = tested on: fall panicum; assay: Test E preemergence; format: in vivo, Panicum dichotomiflorum; settings: for Panicum, Fall plant response rating: scale 0 to 100 (0 no effect, 100 complete control)
How it was run: as §1

[4] = tested on: giant foxtail; assay: Test E preemergence; format: in vivo, Setaria faberii; settings: for Foxtail, Giant plant response rating: scale 0 to 100 (0 no effect, 100 complete control)
How it was run: as §1

[5] = tested on: soybean; assay: Test E preemergence; format: in vivo, Glycine max; settings: for Soybean plant response rating: scale 0 to 100 (0 no effect, 100 complete control)
How it was run: as §1

[6] = tested on: velvetleaf; assay: Test E preemergence; format: in vivo, Abutilon theophrasti; settings: for Velvetleaf plant response rating: scale 0 to 100 (0 no effect, 100 complete control)
How it was run: as §1

[7] = tested on: ragweed; assay: Test A postemergence; format: in vivo, Ambrosia elatior; settings: 0 to 100 scale where 0 is no effect and 100 is complete control
How it was run: as §2

[8] = tested on: corn; assay: Test E preemergence; format: in vivo, Zea mays; settings: for Corn plant response rating: scale 0 to 100 (0 no effect, 100 complete control)
How it was run: as §1

[9] = tested on: large (Lg) crabgrass; assay: Test E preemergence; format: in vivo, Digitaria sanguinalis; settings: for Crabgrass, Large plant response rating: scale 0 to 100 (0 no effect, 100 complete control)
How it was run: as §1

[10] = tested on: waterhemp; assay: Test E preemergence; format: in vivo, Amaranthus rudis; settings: for Waterhemp plant response rating: scale 0 to 100 (0 no effect, 100 complete control)
How it was run: as §1

[11] = tested on: barnyardgrass; assay: Test E preemergence; format: in vivo, Echinochloa crus-galli; settings: for Barnyardgrass plant response rating: scale 0 to 100 (0 no effect, 100 complete control)
How it was run: as §1

[12] = tested on: galium; assay: Test A postemergence; format: in vivo, Galium aparine; settings: 0 to 100 scale where 0 is no effect and 100 is complete control
How it was run: as §2

[13] = tested on: barnyardgrass; assay: Test C flooded paddy test; format: in vivo, Echinochloa crus-galli; settings: Flood, scale 0 to 100 (0 no effect, 100 complete control), 13 to 15 days
How it was run: (§3)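 Compound was added to standing water 3 cm above soil, flood maintained, and plants held in a greenhouse before visual scoring against controls at 13 to 15 days.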

[14] = tested on: nightshade; assay: Test E preemergence; format: in vivo, Solanum ptycanthum; settings: for Nightshade plant response rating: scale 0 to 100 (0 no effect, 100 complete control)
How it was run: as §1

[15] = tested on: sedge, umbrella; assay: Test C flooded paddy test; format: in vivo, Cyperus difformis; settings: Flood, scale 0 to 100 (0 no effect, 100 complete control), 13 to 15 days
How it was run: as §3

[16] = 125 g ai/ha, scale 0 to 100, 0 no effect, 100 complete control
[17] = 250 g ai/ha, scale 0 to 100, 0 no effect, 100 complete control
[18] = preemergence, 125 g ai/ha, scale 0 to 100, 0 no effect, 100 complete control
[19] = 8 g ai/ha, scale 0 to 100, 0 is no effect, 100 is complete control

## CCOc1cnn(-c2c(C#N)cccc2Oc2ncc(F)cn2)c1 [Compound 89]
[1]; 31 g ai/ha
  Field Bindweed plant response rating: 35
[1]; 62 g ai/ha
  Field Bindweed plant response rating: 75
[1]; [16]
  Plant response rating, Field Bindweed: 95
[1]; [17]
  Plant response rating, Field Bindweed: 90
[2]; 125 g ai/ha, 0 to 100 scale where 0 is no effect and 100 is complete control
  Plant response rating, Kochia: 90
[2]; 500 g ai/ha, 0 to 100 scale, 0 no effect, 100 complete control, approx. 10 days
  Kochia plant response rating: 100
[3]; 31 g ai/ha
  Panicum, Fall plant response rating: 0
[3]; 62 g ai/ha
  Panicum, Fall plant response rating: 65
[3]; [16]
  Plant response rating, Panicum, Fall: 100
[3]; [17]
  Plant response rating, Panicum, Fall: 100
[4]; 31 g ai/ha
  Foxtail, Giant plant response rating: 0
[4]; 62 g ai/ha
  Foxtail, Giant plant response rating: 20
[4]; [16]
  Plant response rating, Foxtail, Giant: 65
[4]; [17]
  Plant response rating, Foxtail, Giant: 100
[5]; 62 g ai/ha
  Soybean plant response rating: 30
[5]; [16]
  Plant response rating, Soybean: 60
[5]; [17]
  Plant response rating, Soybean: 80
[6]; 31 g ai/ha
  Velvetleaf plant response rating: 20
[6]; 62 g ai/ha
  Velvetleaf plant response rating: 65
[6]; [16]
  Plant response rating, Velvetleaf: 90
[6]; [17]
  Plant response rating, Velvetleaf: 100
[7]; 125 g ai/ha
  Plant response rating, Ragweed: 30
[7]; 500 g ai/ha
  Plant response rating, Ragweed: 90
[8]; 31 g ai/ha
  Corn plant response rating: 0
[8]; 62 g ai/ha
  Corn plant response rating: 0
[8]; [16]
  Plant response rating, Corn: 30
[8]; [17]
  Plant response rating, Corn: 70
[9]; 31 g ai/ha
  Crabgrass, Large plant response rating: 35
[9]; 62 g ai/ha
  Crabgrass, Large plant response rating: 85
[9]; [16]
  Plant response rating, Crabgrass, Large: 100
[9]; [17]
  Plant response rating, Crabgrass, Large: 100
[10]; 31 g ai/ha
  Waterhemp plant response rating: 0
[10]; 62 g ai/ha
  Waterhemp plant response rating: 70
[10]; [16]
  Plant response rating, Waterhemp: 80
[10]; [17]
  Plant response rating, Waterhemp: 100
[11]; 31 g ai/ha, preemergence
  Barnyardgrass plant response rating: 0
[11]; Preemergence, 62 g ai/ha, scale 0 to 100, 0 no effect, 100 complete control
  Plant response rating, Barnyardgrass: 20
[11]; [18]
  Plant response rating, Barnyardgrass: 70
[11]; preemergence, 250 g ai/ha, scale 0 to 100, 0 no effect, 100 complete control
  Plant response rating, Barnyardgrass: 98
[12]; 125 g ai/ha
  Plant response rating, Galium: 90
[12]; 500 g ai/ha
  Plant response rating, Galium: 90
[13]; 62 g ai/ha
  Plant response rating, Barnyardgrass: 0
[13]; 125 g ai/ha
  Plant response rating, Barnyardgrass: 15
[13]; 250 g ai/ha
  Plant response rating, Barnyardgrass: 20
[14]; 62 g ai/ha
  Nightshade plant response rating: 80
[14]; [16]
  Plant response rating, Nightshade: 100
[14]; [17]
  Plant response rating, Nightshade: 100
[15]; 62 g ai/ha
  Plant response rating, Sedge, Umbrella: 0
[15]; 125 g ai/ha
  Plant response rating, Sedge, Umbrella: 50
[15]; 250 g ai/ha
  Plant response rating, Sedge, Umbrella: 70

## Fc1cccc(Oc2ncc(Cl)cn2)c1-n1cc(I)cn1 [Compound 179]
[1]; [19]
  Plant response rating, Field Bindweed: 0
[1]; 16 g ai/ha
  Field Bindweed plant response rating: 0
[1]; 62 g ai/ha
  Field Bindweed plant response rating: 0
[1]; [16]
  Plant response rating, Field Bindweed: 30
[3]; [19]
  Plant response rating, Panicum, Fall: 0
[3]; 62 g ai/ha
  Panicum, Fall plant response rating: 75
[3]; [16]
  Plant response rating, Panicum, Fall: 98
[4]; [19]
  Plant response rating, Foxtail, Giant: 0
[4]; 16 g ai/ha
  Foxtail, Giant plant response rating: 0
[4]; 62 g ai/ha
  Foxtail, Giant plant response rating: 65
[4]; [16]
  Plant response rating, Foxtail, Giant: 100
[5]; [19]
  Plant response rating, Soybean: 0
[5]; 62 g ai/ha
  Soybean plant response rating: 25
[5]; [16]
  Plant response rating, Soybean: 40
[6]; [19]
  Plant response rating, Velvetleaf: 20
[6]; 62 g ai/ha
  Velvetleaf plant response rating: 100
[6]; [16]
  Plant response rating, Velvetleaf: 100
[8]; [19]
  Plant response rating, Corn: 0
[8]; 16 g ai/ha
  Corn plant response rating: 0
[8]; 62 g ai/ha
  Corn plant response rating: 0
[8]; [16]
  Plant response rating, Corn: 0
[9]; [19]
  Plant response rating, Crabgrass, Large: 0
[9]; 16 g ai/ha
  Crabgrass, Large plant response rating: 0
[9]; 62 g ai/ha
  Crabgrass, Large plant response rating: 75
[9]; [16]
  Plant response rating, Crabgrass, Large: 98
[10]; [19]
  Plant response rating, Waterhemp: 0
[10]; 62 g ai/ha
  Waterhemp plant response rating: 90
[10]; [16]
  Plant response rating, Waterhemp: 98
[11]; 8 g ai/ha, preemergence, scale 0 to 100, 0 is no effect, 100 is complete control
  Plant response rating, Barnyardgrass: 0
[11]; 16 g ai/ha, preemergence
  Barnyardgrass plant response rating: 0
[11]; 62 g ai/ha, preemergence
  Barnyardgrass plant response rating: 10
[11]; [18]
  Plant response rating, Barnyardgrass: 20
[13]; 31 g ai/ha
  Plant response rating, Barnyardgrass: 0
[13]; 62 g ai/ha
  Plant response rating, Barnyardgrass: 0
[13]; 125 g ai/ha
  Plant response rating, Barnyardgrass: 0
[13]; 250 g ai/ha
  Plant response rating, Barnyardgrass: 0
[14]; [19]
  Plant response rating, Nightshade: 0
[14]; 62 g ai/ha
  Nightshade plant response rating: 80
[14]; [16]
  Plant response rating, Nightshade: 95
[15]; 31 g ai/ha
  Plant response rating, Sedge, Umbrella: 0
[15]; 62 g ai/ha
  Plant response rating, Sedge, Umbrella: 0
[15]; 125 g ai/ha
  Plant response rating, Sedge, Umbrella: 40
[15]; 250 g ai/ha
  Plant response rating, Sedge, Umbrella: 80

## FC(F)c1cccc(Oc2ncc(Cl)cn2)c1-n1cc(Br)cn1 [Compound 194, 2-[2-(4-bromo-1H-pyrazol-1-yl)-3-(difluoromethyl)phenoxy]-5-chloropyrimidine]
[1]; 31 g ai/ha
  Field Bindweed plant response rating: 0
[1]; 62 g ai/ha
  Field Bindweed plant response rating: 40
[3]; 31 g ai/ha
  Panicum, Fall plant response rating: 80
[3]; 62 g ai/ha
  Panicum, Fall plant response rating: 100
[4]; 31 g ai/ha
  Foxtail, Giant plant response rating: 25
[4]; 62 g ai/ha
  Foxtail, Giant plant response rating: 75
[5]; 31 g ai/ha
  Soybean plant response rating: 0
[5]; 62 g ai/ha
  Soybean plant response rating: 20
[6]; 31 g ai/ha
  Velvetleaf plant response rating: 5
[6]; 62 g ai/ha
  Velvetleaf plant response rating: 25
[8]; 31 g ai/ha
  Corn plant response rating: 0
[8]; 62 g ai/ha
  Corn plant response rating: 0
[9]; 31 g ai/ha
  Crabgrass, Large plant response rating: 85
[9]; 62 g ai/ha
  Crabgrass, Large plant response rating: 95
[10]; 31 g ai/ha
  Waterhemp plant response rating: 98
[10]; 62 g ai/ha
  Waterhemp plant response rating: 100
[11]; 31 g ai/ha, preemergence
  Barnyardgrass plant response rating: 0
[11]; 62 g ai/ha, preemergence
  Barnyardgrass plant response rating: 0
[13]; 31 g ai/ha
  Plant response rating, Barnyardgrass: 0
[13]; 62 g ai/ha
  Plant response rating, Barnyardgrass: 0
[13]; 125 g ai/ha
  Plant response rating, Barnyardgrass: 0
[13]; 250 g ai/ha
  Plant response rating, Barnyardgrass: 0
[14]; 31 g ai/ha
  Nightshade plant response rating: 95
[14]; 62 g ai/ha
  Nightshade plant response rating: 95
[15]; 31 g ai/ha
  Plant response rating, Sedge, Umbrella: 50
[15]; 62 g ai/ha
  Plant response rating, Sedge, Umbrella: 75
[15]; 125 g ai/ha
  Plant response rating, Sedge, Umbrella: 85
[15]; 250 g ai/ha
  Plant response rating, Sedge, Umbrella: 95
